This assay in a line: Dissociation constant of compound was evaluated from its IC50 against tryptase at different concentrations.

Molecules are shown by their SMILES.

For `NC(N)=Nc1ccc(CNC(=O)N2CCN(C(=O)O[C@@H]3CO[C@H]4[C@@H]3OC[C@H]4OC(=O)N3CCN(C(=O)NCc4ccc(N=C(N)N)cc4)CC3)CC2)cc1` [Derivative of APC-2059], binding was put at a Kd of 0.1 nM.
